Source: the supplement of paper PMC13380429

Columns and labels:
Caco-2 [1] = assay: relative viability EC50 (midpoint between 100% and the lowest measured viability); higher = less toxic; conditions: 72 h
U2OS [2] = assay: as above; conditions: 72 h
Calu-3 [3] = assay: as above; conditions: 72 h
[4] = test system: A549-ACE2 infected with SARS-CoV-2; assay: cell count relative to DMSO; higher = less toxic; conditions: 24 h
Caco-2 [5] = assay: drug sensitivity score (DSS) for viability; higher = more toxic; extreme values may be limits of the assay; conditions: 72 h
Vero E6 [6] = assay: as above; conditions: 72 h
U2OS [7] = assay: as above; conditions: 72 h
Calu-3 [8] = assay: as above; conditions: 72 h
HepG2 [9] = assay: as above; conditions: 72 h
A549-ACE2 [10] = assay: drug-induced phospholipidosis relative to tamoxifen; higher = more phospholipidosis
Caco-2 [11] = assay: cell viability relative to DMSO; higher = less toxic; conditions: 72 h
Vero E6 [12] = assay: as above; conditions: 72 h
U2OS [13] = assay: as above; conditions: 72 h
Calu-3 [14] = assay: as above; conditions: 72 h
HepG2 [15] = assay: as above; conditions: 72 h
[16] = test system: A549-ACE2 infected with SARS-CoV-2; assay: SARS-CoV-2 infection rate relative to DMSO; higher = more infection; conditions: 24 h
A549-ACE2 [17] = assay: phospholipidosis EC50; higher = less potent phospholipidosis inducer
[18] = test system: A549-ACE2 infected with SARS-CoV-2; assay: morphology score (similarity to uninfected cells); higher = more like uninfected cells; conditions: 24 h
Vero E6 [19] = assay: relative viability EC50 (midpoint between 100% and the lowest measured viability); higher = less toxic; conditions: 72 h
HepG2 [20] = assay: as above; conditions: 72 h

Oc1ccc2c3c1O[C@H]1c4c(c5ccccc5n4Cc4ccccc4)C[C@@]4(O)[C@@H](C2)N(CC2CC2)CC[C@]314 [N-benzylnaltrindole]
Conditions | drug sensitivity score | relative viability EC50 [nM]
Caco-2 [1] | – | > 10000
Caco-2 [5] | 0 | –
Calu-3 [3] | – | 3190
Calu-3 [8] | 3.3 | –
HepG2 [9] | 2.3 | –
U2OS [2] | – | > 10000
U2OS [7] | 0 | –
Vero E6 [6] | 1.9 | –

Conditions | SARS-CoV-2 infection rate [%] | cell count [%] | cell viability [%] | morphology score | phospholipidosis EC50 [nM]
A549-ACE2 [17], 24 h | – | – | – | – | 2620
A549-ACE2 [17], 48 h | – | – | – | – | 4610
A549-ACE2 [17], 72 h | – | – | – | – | 6760
Caco-2 [11], 1 nM | – | – | 88.7 | – | –
Caco-2 [11], 10 nM | – | – | 99.7 | – | –
Caco-2 [11], 100 nM | – | – | 88.5 | – | –
Caco-2 [11], 1000 nM | – | – | 99 | – | –
Caco-2 [11], 10000 nM | – | – | 86.9 | – | –
Calu-3 [14], 1 nM | – | – | 96.9 | – | –
Calu-3 [14], 10 nM | – | – | 99.8 | – | –
Calu-3 [14], 100 nM | – | – | 106 | – | –
Calu-3 [14], 1000 nM | – | – | 100 | – | –
Calu-3 [14], 10000 nM | – | – | 38.9 | – | –
HepG2 [15], 1 nM | – | – | 102 | – | –
HepG2 [15], 10 nM | – | – | 98.9 | – | –
HepG2 [15], 100 nM | – | – | 103 | – | –
HepG2 [15], 1000 nM | – | – | 100 | – | –
HepG2 [15], 10000 nM | – | – | 54.8 | – | –
U2OS [13], 1 nM | – | – | 94.9 | – | –
U2OS [13], 10 nM | – | – | 102 | – | –
U2OS [13], 100 nM | – | – | 95.9 | – | –
U2OS [13], 1000 nM | – | – | 102 | – | –
U2OS [13], 10000 nM | – | – | 89.1 | – | –
Vero E6 [12], 1 nM | – | – | 100 | – | –
Vero E6 [12], 10 nM | – | – | 96 | – | –
Vero E6 [12], 100 nM | – | – | 95.1 | – | –
Vero E6 [12], 1000 nM | – | – | 96.2 | – | –
Vero E6 [12], 10000 nM | – | – | 70.1 | – | –
[4], 0.1 µM | – | 100 | – | – | –
[4], 0.3 µM | – | 101 | – | – | –
[4], 1 µM | – | 104 | – | – | –
[4], 3 µM | – | 108 | – | – | –
[16], 0.1 µM | 96 | – | – | – | –
[16], 0.3 µM | 94 | – | – | – | –
[16], 1 µM | 90 | – | – | – | –
[16], 3 µM | 69 | – | – | – | –
[18], 0.1 µM | – | – | – | 0.1 | –
[18], 0.3 µM | – | – | – | 0.1 | –
[18], 1 µM | – | – | – | 0.24 | –
[18], 3 µM | – | – | – | 0.47 | –

drug-induced phospholipidosis [%], A549-ACE2 [10]
Conditions | 0.3 µM | 0.833333 µM | 3.33333 µM | 6.66667 µM | 10 µM | 30 µM
24 h | 4.31 | 4.24 | 48.7 | 70.1 | 59 | 26.2
48 h | 5.61 | 4.16 | 44.9 | 83.7 | 102 | –
72 h | 4.1 | 4.23 | 35.4 | 81.8 | 111 | –

CNCc1ccc(-c2cc(-c3nc(-c4ccc(S(=O)(=O)C(C)C)cc4)cnc3N)on2)cc1 [VE-822]
Conditions | drug sensitivity score | relative viability EC50 [nM]
Caco-2 [1] | – | 2040
Caco-2 [5] | 3.9 | –
Calu-3 [3] | – | > 10000
Calu-3 [8] | 0 | –
HepG2 [9] | 10.1 | –
HepG2 [20] | – | 779
U2OS [7] | 2.6 | –
Vero E6 [6] | 7.9 | –
Vero E6 [19] | – | 1970

Conditions | SARS-CoV-2 infection rate [%] | cell count [%] | cell viability [%] | morphology score | phospholipidosis EC50 [nM]
A549-ACE2 [17], 24 h | – | – | – | – | 1160
A549-ACE2 [17], 48 h | – | – | – | – | 3020
A549-ACE2 [17], 72 h | – | – | – | – | 2970
Caco-2 [11], 1 nM | – | – | 104 | – | –
Caco-2 [11], 10 nM | – | – | 103 | – | –
Caco-2 [11], 100 nM | – | – | 103 | – | –
Caco-2 [11], 1000 nM | – | – | 92.8 | – | –
Caco-2 [11], 10000 nM | – | – | 49.3 | – | –
Calu-3 [14], 1 nM | – | – | 96.5 | – | –
Calu-3 [14], 10 nM | – | – | 93.2 | – | –
Calu-3 [14], 100 nM | – | – | 93.4 | – | –
Calu-3 [14], 1000 nM | – | – | 106 | – | –
Calu-3 [14], 10000 nM | – | – | 90 | – | –
HepG2 [15], 1 nM | – | – | 111 | – | –
HepG2 [15], 10 nM | – | – | 99 | – | –
HepG2 [15], 100 nM | – | – | 94 | – | –
HepG2 [15], 1000 nM | – | – | 53.3 | – | –
HepG2 [15], 10000 nM | – | – | 19.1 | – | –
U2OS [13], 1 nM | – | – | 101 | – | –
U2OS [13], 10 nM | – | – | 104 | – | –
U2OS [13], 100 nM | – | – | 96 | – | –
U2OS [13], 1000 nM | – | – | 89.9 | – | –
U2OS [13], 10000 nM | – | – | 67.4 | – | –
Vero E6 [12], 1 nM | – | – | 94.8 | – | –
Vero E6 [12], 10 nM | – | – | 95.7 | – | –
Vero E6 [12], 100 nM | – | – | 97.2 | – | –
Vero E6 [12], 1000 nM | – | – | 85.1 | – | –
Vero E6 [12], 10000 nM | – | – | 2.1 | – | –
[4], 0.1 µM | – | 107 | – | – | –
[4], 0.3 µM | – | 110 | – | – | –
[4], 1 µM | – | 128 | – | – | –
[4], 3 µM | – | 118 | – | – | –
[16], 0.1 µM | 89 | – | – | – | –
[16], 0.3 µM | 89 | – | – | – | –
[16], 1 µM | 51 | – | – | – | –
[16], 3 µM | 25 | – | – | – | –
[18], 0.1 µM | – | – | – | 0.32 | –
[18], 0.3 µM | – | – | – | 0.31 | –
[18], 1 µM | – | – | – | 0.57 | –
[18], 3 µM | – | – | – | 0.55 | –

drug-induced phospholipidosis [%], A549-ACE2 [10]
Conditions | 0.3 µM | 0.833333 µM | 3.33333 µM | 6.66667 µM | 10 µM | 30 µM
24 h | 13.9 | 27.3 | 86.2 | 113 | 119 | 42.3
48 h | 14.2 | 28 | 89.1 | 124 | 148 | 62.7
72 h | 16.7 | 20.1 | 102 | 143 | 163 | 63.3
